Measurements: publication PMC10247778, “PXL1 and SERKs act as receptor–coreceptor complexes for the CLE19 peptide to regulate pollen development” (Nature Communications, 2023)
“Also recorded” adds a separate entry of the source. Ends that are not written are not given here.

T1: PXL1^LRR (extracellular LRR domain of PXY-LIKE1, residues 1-639, 6xHis) (Arabidopsis, UniProt Q9FRS6 24-639)
T1 construct: signal peptide in the construct; PXL1 (PXY-LIKE1), Arabidopsis, AT1G08590, LRR domains, residues 1-639; also called PXL1 ectodomain; PXL1^LRR-6×His; source: High Five cells, purified (Ni-NTA, size-exclusion chromatography)
T1 sequence (looked up): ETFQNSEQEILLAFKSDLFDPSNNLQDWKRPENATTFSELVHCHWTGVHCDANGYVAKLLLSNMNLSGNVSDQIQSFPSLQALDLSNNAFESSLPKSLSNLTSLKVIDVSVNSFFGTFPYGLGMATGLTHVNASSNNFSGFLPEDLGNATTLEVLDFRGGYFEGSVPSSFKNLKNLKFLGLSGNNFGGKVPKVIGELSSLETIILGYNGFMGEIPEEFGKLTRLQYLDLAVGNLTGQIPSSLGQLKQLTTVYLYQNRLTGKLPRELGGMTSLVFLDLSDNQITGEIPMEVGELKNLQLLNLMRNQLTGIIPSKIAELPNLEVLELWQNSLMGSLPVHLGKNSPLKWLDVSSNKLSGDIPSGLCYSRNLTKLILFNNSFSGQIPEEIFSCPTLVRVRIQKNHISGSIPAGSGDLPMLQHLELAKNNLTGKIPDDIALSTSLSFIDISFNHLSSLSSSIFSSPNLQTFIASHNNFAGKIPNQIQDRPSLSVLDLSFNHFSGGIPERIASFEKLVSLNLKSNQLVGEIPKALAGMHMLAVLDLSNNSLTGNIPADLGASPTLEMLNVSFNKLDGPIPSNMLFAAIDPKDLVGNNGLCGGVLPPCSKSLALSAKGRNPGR


Legend:
PXL1 (PXL1-FLAG) = assay: In vivo phosphorylation assay, Phos-tag SDS-PAGE and western blot; type: cell-based, Arabidopsis; conditions: 10-day-old pPXL1::PXL1-FLAG seedlings, 20 µM peptide, 1.5 h; Phos-tag gel, anti-FLAG; λpp control
Protocol: Ten-day-old […] transgenic seedlings were tested to observe the phosphorylation status of PXL1. The seedlings were cultured in 1/2 MS liquid medium treated with mock or 20 μM CLE19, CLE19[…] or CLV3 peptide for 1.5 h and then ground to a fine powder in liquid N2 for protein extraction performed as described above. The extracted protein was analyzed by Phos-tag (Wako) gel and immunoblotting using anti-FLAG (GNI) antibody. The anti-HSP70 (Abmart) antibody was used to determine the amount of input protein. Anti-FLAG beads (Abmart) were used for immunoprecipitation to purify the PXL1-FLAG protein. Anti-pS/T (ECM) was used to detect the phosphorylation status of the PXL1 protein after CLE19 treatment. The seedling protein extracted was also treated with λpp (NEB) at 30 °C for 0.5 h and then analyzed by anti-FLAG and anti-HSP antibodies.

PXL1 (PXL1^LRR) = assay: Gel filtration-MALDI-TOF identification of peptides copurified with PXL1 LRR; type: binding, Arabidopsis; conditions: PXL1^LRR incubated with synthesized peptide mixture (0.1 mg each), 10 mM Bis-Tris pH 6.0, 100 mM NaCl, on ice 1 h, Superdex 200
Protocol: As part of an effort to identify cognate receptors for peptidyl ligands in Arabidopsis, a pool of synthetic CLE small peptides (Supplementary Table 1) was mixed with purified individual extracellular LRR domains of receptor-like kinases (RLKs). The putative RLK-ligand complexes were purified by gel-filtration, and the peptides were detected by mass spectrometry, as reported previously.
Purified PXL1^LRR protein (with buffer containing 10 mM Bis-Tris pH 6.0, 100 mM NaCl) was incubated with synthesized peptide mixture (0.1 mg for each; Supplementary Table 1) on ice for 1 h. Then, each mixture was subjected to gel filtration (Superdex 200, GE Healthcare) for analysis. The relevant peak fractions of PXL1^LRR were collected and 2 μl was used for analyzed by MALDI-TOF–mass spectrometry analysis.

[1] = molecular target: PXL1 LRR (Arabidopsis thaliana) (UniProt Q9FRS6); assay: ITC; conditions: cited from earlier work
[2] = molecular target: PXL2 LRR (Arabidopsis thaliana) (UniProt Q9M0G7); assay: ITC; conditions: cited from earlier work
Chain of PXL2 LRR (Arabidopsis thaliana) (Q9M0G7 24-633): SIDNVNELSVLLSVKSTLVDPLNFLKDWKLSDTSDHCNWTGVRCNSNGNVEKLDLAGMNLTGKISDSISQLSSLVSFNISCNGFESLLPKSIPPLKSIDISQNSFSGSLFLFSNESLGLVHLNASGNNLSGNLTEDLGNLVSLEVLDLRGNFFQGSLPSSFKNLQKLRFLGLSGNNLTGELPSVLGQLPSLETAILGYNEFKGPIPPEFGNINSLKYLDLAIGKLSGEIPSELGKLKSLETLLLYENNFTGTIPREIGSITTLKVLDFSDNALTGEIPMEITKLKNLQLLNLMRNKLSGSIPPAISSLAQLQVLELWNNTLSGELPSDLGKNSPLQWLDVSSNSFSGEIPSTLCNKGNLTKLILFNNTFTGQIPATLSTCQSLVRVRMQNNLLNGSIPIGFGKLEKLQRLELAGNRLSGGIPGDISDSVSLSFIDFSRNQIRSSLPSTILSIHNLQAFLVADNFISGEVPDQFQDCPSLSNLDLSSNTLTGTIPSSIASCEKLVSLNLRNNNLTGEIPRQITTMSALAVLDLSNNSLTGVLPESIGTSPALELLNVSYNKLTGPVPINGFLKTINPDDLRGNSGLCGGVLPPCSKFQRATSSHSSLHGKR

[3] = molecular target: PXY LRR (Arabidopsis thaliana) (UniProt Q9FII5); assay: ITC; conditions: cited from earlier work
Chain of PXY LRR (Arabidopsis thaliana) (Q9FII5 30-652): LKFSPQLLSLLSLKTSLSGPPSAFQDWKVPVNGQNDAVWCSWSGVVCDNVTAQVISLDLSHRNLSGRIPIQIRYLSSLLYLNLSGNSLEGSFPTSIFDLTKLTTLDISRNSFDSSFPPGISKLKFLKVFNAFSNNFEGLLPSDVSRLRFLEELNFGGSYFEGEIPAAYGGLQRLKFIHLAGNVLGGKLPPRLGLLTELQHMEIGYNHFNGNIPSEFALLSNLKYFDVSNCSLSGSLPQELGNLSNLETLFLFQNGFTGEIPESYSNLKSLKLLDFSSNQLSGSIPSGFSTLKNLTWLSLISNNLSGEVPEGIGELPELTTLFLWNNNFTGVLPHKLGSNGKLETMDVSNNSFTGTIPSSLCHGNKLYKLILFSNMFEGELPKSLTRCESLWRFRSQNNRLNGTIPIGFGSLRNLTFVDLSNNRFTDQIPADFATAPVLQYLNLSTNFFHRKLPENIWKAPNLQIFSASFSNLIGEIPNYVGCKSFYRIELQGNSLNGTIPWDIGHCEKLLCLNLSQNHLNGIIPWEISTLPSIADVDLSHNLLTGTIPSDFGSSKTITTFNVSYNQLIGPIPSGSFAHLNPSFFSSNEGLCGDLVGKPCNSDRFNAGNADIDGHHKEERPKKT

[4] = molecular target: PXL1^∆KD–SERK1^∆KD interaction; assay: Co-IP PXL1^∆KD-SERK1^∆KD in Nicotiana benthamiana; type: cell-based, Arabidopsis; conditions: N. benthamiana leaves, with or without peptide 3–4 h; GFP-Trap, anti-Myc
Description: The 825 bp SERK1 (SERK1^∆KD), 834 bp SERK2 (SERK2^∆KD) and the 927 bp SERK3/BAK1 (BAK1^∆KD) coding regions were amplified with the primers listed in Supplementary Table 3. The PCR products of SERK1^∆KD, SERK2^∆KD and BAK1^∆KD were inserted into the pCAMBIA1306-GFP vector at the KpnI and SalI sites to generate the pCAMBIA1306-SERK1^∆KD/2/BAK1^∆KD-GFP constructs. pCAMBIA1306-PXL^∆KD -MYC, pCAMBIA1306-SERK1^∆KD GFP and pCAMBIA1306-BAK1^∆KD-GFP were transferred into the Agrobacterium tumefaciens GV3101 strain.
The cultures were grown overnight in 2 x YT medium and resuspended to optical density at 600 nm (OD600) = 2.0 in an injection buffer (150 μM acetosyringone, 10 mM MgCl2 and 10 mM MES). […]
Total proteins were extracted from the N. benthamiana leaves with the extraction buffer (50 mM Tris-HCl (pH 7.5), 150 mM NaCl, 5 mM EDTA, 5% glycerol, 1% Triton X-100 with protease inhibitor, phosphatase inhibitor, and PMSF) and then incubated with GFP-Trap beads (Chromo Tek) at 4 °C for 4 h, followed by two washes (50 mM Tris-HCl (pH 7.5), 150 mM NaCl, 5 mM EDTA, 5% glycerol, and 0.01% Triton X-100). Proteins were separated on SDS-PAGE gels and detected by anti-Myc (GNI) antibody via western blots.

[5] = molecular target: PXL2 (protein used for ITC) (Arabidopsis, UniProt Q9M0G7 24-1013); assay: ITC; CLE19 with PXL2 and with PXY; conditions not told for these proteins; conditions: both partners purified
Chain of PXL2 (protein used for ITC) (Q9M0G7 24-1013): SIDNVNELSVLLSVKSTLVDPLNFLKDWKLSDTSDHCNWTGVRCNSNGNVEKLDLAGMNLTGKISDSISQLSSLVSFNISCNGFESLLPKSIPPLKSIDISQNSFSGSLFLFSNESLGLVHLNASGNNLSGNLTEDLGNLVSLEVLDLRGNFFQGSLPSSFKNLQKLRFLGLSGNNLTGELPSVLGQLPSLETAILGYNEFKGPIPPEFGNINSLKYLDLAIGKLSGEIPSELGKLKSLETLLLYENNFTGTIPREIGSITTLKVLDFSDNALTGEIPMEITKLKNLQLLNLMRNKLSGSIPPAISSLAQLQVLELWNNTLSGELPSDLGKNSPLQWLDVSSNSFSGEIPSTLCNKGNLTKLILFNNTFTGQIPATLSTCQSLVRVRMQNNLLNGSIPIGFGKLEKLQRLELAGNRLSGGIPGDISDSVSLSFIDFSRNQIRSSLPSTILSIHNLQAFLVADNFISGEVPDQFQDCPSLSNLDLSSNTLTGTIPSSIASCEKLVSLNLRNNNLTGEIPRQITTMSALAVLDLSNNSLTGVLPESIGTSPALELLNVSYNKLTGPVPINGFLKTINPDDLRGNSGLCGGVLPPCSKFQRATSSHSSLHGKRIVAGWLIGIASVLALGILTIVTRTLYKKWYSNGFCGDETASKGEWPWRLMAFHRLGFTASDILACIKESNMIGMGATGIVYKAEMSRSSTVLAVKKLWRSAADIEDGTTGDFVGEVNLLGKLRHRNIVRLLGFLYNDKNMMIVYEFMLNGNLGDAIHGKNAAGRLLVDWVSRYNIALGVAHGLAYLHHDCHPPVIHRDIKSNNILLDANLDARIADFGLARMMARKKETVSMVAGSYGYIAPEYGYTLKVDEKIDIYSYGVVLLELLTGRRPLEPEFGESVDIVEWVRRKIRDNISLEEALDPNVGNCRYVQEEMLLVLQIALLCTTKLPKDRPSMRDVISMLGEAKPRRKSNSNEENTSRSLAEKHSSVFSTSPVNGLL

[6] = molecular target: T1, PXL1^LRR (extracellular LRR domain of …); assay: ITC; ITC200; 1 mM CLE19 titrated into 0.1 mM PXL1^LRR in the cell, 20 injections; 10 mM Bis-Tris pH 6.0, 100 mM NaCl; 25 °C; conditions: both partners purified

Molecule | CLE peptide copurified with PXL1 (PXL1 (PXL1^LRR)) | also measured
CLE19G6T: functionally inactive CLE19G6T (RVIPTTPNPLHN; ends and bridges not checked; UniProt Q8W261 62-73, looked up, variant G6T) | – | PXL1 phosphorylation (Phos-tag migration) (PXL1 (PXL1-FLAG)): Neither CLE19G6T nor CLV3 induced the phosphorylation-related migration of PXL1; also recorded: PXL1 phosphorylation was not induced; also recorded: lost the ability of inducing PXL1 phosphorylation
CLE18: CLE peptide (RQIPTGPDPLHN; ends and bridges not checked; UniProt Q3ECH9 37-48, looked up) | CLE19 was the only CLE peptide that co-purified with PXL1 | –
CLE14: CLE peptide (RLVPKGPNPLHN; ends and bridges not checked; UniProt Q3ECJ5 68-79, looked up) | CLE19 was the only CLE peptide that co-purified with PXL1 | –
CLE43: CLE peptide (RRIPSSPDRLHN; ends and bridges not checked; UniProt Q6IWB1 85-96, looked up) | CLE19 was the only CLE peptide that co-purified with PXL1 | –
CLE41 (from UniProt Q84W98) | – | Kd [1]: 2100 nM; Kd [2]: 9900 nM; Kd [3]: 33 nM
CLE40: CLE peptide (RQVPTGSDPLHH; ends and bridges not checked; UniProt Q9LXU0 62-73, looked up) | CLE19 was the only CLE peptide that co-purified with PXL1 | –
CLE20: CLE peptide (RKVKTGSNPLHN; ends and bridges not checked; UniProt Q3EDI6 70-81, looked up) | CLE19 was the only CLE peptide that co-purified with PXL1 | –
CLE8: CLE peptide (RRVPTGPNPLHH; ends and bridges not checked; UniProt Q2V4E2 61-72, looked up) | CLE19 was the only CLE peptide that co-purified with PXL1 | –
CLE6: synthetic CLE small peptide of the pool (RVSPGGPDPQHH; ends and bridges not checked; UniProt Q8S8N3 70-81, looked up) | CLE19 was the only CLE peptide that co-purified with PXL1; also recorded: but not CLV3, CLE3, CLE6, and others | –
CLAVATA3 [CLV3] | interaction with PXL1 was not detected; also recorded: CLE19 was the only CLE peptide that co-purified with PXL1; also recorded: but not CLV3, CLE3, CLE6, and others | PXL1 phosphorylation (Phos-tag migration) (PXL1 (PXL1-FLAG)): Neither CLE19G6T nor CLV3 induced the phosphorylation-related migration of PXL1; also recorded: PXL1 phosphorylation was not induced; PXL1^∆KD-SERK1^∆KD interaction (co-IP) [4]: no such interaction was detected in the absence of CLE19 or the presence of CLV3
CLE25: CLE peptide (RKVPNGPDPIHN; ends and bridges not checked; UniProt Q8LFL4 58-69, looked up) | CLE19 was the only CLE peptide that co-purified with PXL1 | –
CLE9: CLE peptide (RLVPSGPNPLHN; ends and bridges not checked; UniProt Q9FZE4 109-120, looked up) | CLE19 was the only CLE peptide that co-purified with PXL1 | –
CLE12: CLE peptide (RRVPSGPNPLHH; ends and bridges not checked; UniProt Q29PU4 107-118, looked up) | CLE19 was the only CLE peptide that co-purified with PXL1 | –
CLE45: CLE peptide (RRVRRGSDPIHN; ends and bridges not checked; UniProt Q6IWA9 107-118, looked up) | CLE19 was the only CLE peptide that co-purified with PXL1 | –
CLE11: CLE peptide (RVVPSGPNPLHH; ends and bridges not checked; UniProt Q3ECU1 88-99, looked up) | CLE19 was the only CLE peptide that co-purified with PXL1 | –
CLE16: CLE peptide (RLVHTGPNPLHN; ends and bridges not checked; UniProt Q8S8M2 92-103, looked up) | CLE19 was the only CLE peptide that co-purified with PXL1 | –
CLE46: CLE peptide (HKHPSGPNPTGN; ends and bridges not checked; UniProt Q8LDN4 58-69, looked up) | CLE19 was the only CLE peptide that co-purified with PXL1 | –
CLE3: synthetic CLE small peptide of the pool (RLSPGGPDPRHH; ends and bridges not checked; UniProt Q3EDH8 72-83, looked up) | CLE19 was the only CLE peptide that co-purified with PXL1; also recorded: but not CLV3, CLE3, CLE6, and others | –
RVIPTGPNPLHN (ends and bridges not checked) | – | Kd [5]: 714 nM
RVIPTGPNPLHN | – | Kd [6]: ~346 nM
